Assay results reported in US9708314B2, “Heterocyclic amide compound” (NISSAN CHEMICAL INDUSTRIES, LTD., priority 2013, dated 2017).

Assays:
Format in all cases: in vivo
[1] = system: Beta vulgaris ssp. vulgaris; assay: Test Example 4: effect on crop by application to foliage (diluvial soil, plastic box); conditions: for f: effect on crop, Beta vulgaris ssp. vulgaris: application to foliage, application herbicide amount 320 g/ha; for f (Beta vulgaris ssp. vulgaris) effect on crop grade: foliage application, 320 g/ha
Summary of the method: (§1)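 Greenhouse plants (25° C. to 30° C., 14 d, diluvial soil) receive a foliar spray of water-diluted emulsifiable formulation at defined g/ha. Grading after 3 weeks uses a six-step herbicidal-ratio scale, with 4 covering 70% to <90% and 1 covering 5% to <20%.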

Glycine max = assay: as above; conditions: for d: effect on crop, Glycine max: application to foliage, application herbicide amount 320 g/ha; for c (Glycine max) effect on crop grade: foliage application, 320 g/ha
Summary of the method: as §1

Brassica campestris L. = assay: as above; conditions: for g: effect on crop, Brassica campestris L.: application to foliage, application herbicide amount 320 g/ha; for g (Brassica campestris L.) effect on crop grade: foliage application, 320 g/ha
Summary of the method: as §1

[2] = system: directly sowed Oryza sativa; assay: as above; conditions: for b: effect on crop, directly sowed Oryza sativa: application to foliage, application herbicide amount 320 g/ha; for d (directly sowed Oryza sativa) effect on crop grade: foliage application, 320 g/ha
Summary of the method: as §1

Triticum aestivum = assay: as above; conditions: for e: effect on crop, Triticum aestivum: application to foliage, application herbicide amount 320 g/ha; for e (Triticum aestivum) effect on crop grade: foliage application, 320 g/ha
Summary of the method: as §1

Zea mays = assay: as above; conditions: for c: effect on crop, Zea mays: application to foliage, application herbicide amount 320 g/ha; for b (Zea mays) effect on crop grade: foliage application, 320 g/ha
Summary of the method: as §1

Chenopodium album = assay: Test Example 4: herbicidal effect by application to foliage (diluvial soil, plastic box); conditions: for O: herbicidal effect on Chenopodium album: application to foliage, application herbicide amount 320 g/ha; for O (Chenopodium album) herbicidal effect grade: foliage application, 320 g/ha
Summary of the method: as §1

Setaria viridis = assay: as above; conditions: for G: herbicidal effect on Setaria viridis: application to foliage, application herbicide amount 320 g/ha; for G (Setaria viridis) herbicidal effect grade: foliage application, 320 g/ha
Summary of the method: as §1

[3] = system: Echinochloa crus-galli var. crus-galli; assay: as above; conditions: for H: herbicidal effect on Echinochloa crus-galli var. crus-galli: application to foliage, application herbicide amount 320 g/ha; for H (Echinochloa crus-galli var. crus-galli) herbicidal effect grade: foliage application, 320 g/ha
Summary of the method: as §1

Veronica persica = assay: as above; conditions: for R: herbicidal effect on Veronica persica: application to foliage, application herbicide amount 320 g/ha; for R (Veronica persica) herbicidal effect grade: foliage application, 320 g/ha
Summary of the method: as §1

Alopecurus myosuroides = assay: as above; conditions: for J: herbicidal effect on Alopecurus myosuroides: application to foliage, application herbicide amount 320 g/ha; for J (Alopecurus myosuroides) herbicidal effect grade: foliage application, 320 g/ha
Summary of the method: as §1

Amaranthus retroflexus = assay: as above; conditions: for N: herbicidal effect on Amaranthus retroflexus: application to foliage, application herbicide amount 320 g/ha; for N (Amaranthus retroflexus) herbicidal effect grade: foliage application, 320 g/ha
Summary of the method: as §1

Apera spica-venti. = assay: as above; conditions: for L: herbicidal effect on Apera spica-venti.: application to foliage, application herbicide amount 320 g/ha; for L (Apera spica-venti.) herbicidal effect grade: foliage application, 320 g/ha
Summary of the method: as §1

Lolium multiflorum Lam. = assay: as above; conditions: for K: herbicidal effect on Lolium multiflorum Lam.: application to foliage, application herbicide amount 320 g/ha; for K (Lolium multiflorum Lam.) herbicidal effect grade: foliage application, 320 g/ha
Summary of the method: as §1

Avena fatua = assay: as above; conditions: for I: herbicidal effect on Avena fatua: application to foliage, application herbicide amount 320 g/ha; for I (Avena fatua) herbicidal effect grade: foliage application, 320 g/ha
Summary of the method: as §1

Stellaria media = assay: as above; conditions: for P: herbicidal effect on Stellaria media: application to foliage, application herbicide amount 320 g/ha; for P (Stellaria media) herbicidal effect grade: foliage application, 320 g/ha
Summary of the method: as §1

Galium spurium = assay: as above; conditions: for Q: herbicidal effect on Galium spurium: application to foliage, application herbicide amount 320 g/ha; for Q (Galium spurium) herbicidal effect grade: foliage application, 320 g/ha
Summary of the method: as §1

Abutilon theophrasti = assay: as above; conditions: for M: herbicidal effect on Abutilon theophrasti: application to foliage, application herbicide amount 320 g/ha; for M (Abutilon theophrasti) herbicidal effect grade: foliage application, 320 g/ha
Summary of the method: as §1

Digitaria ciliaris = assay: as above; conditions: for F: herbicidal effect on Digitaria ciliaris: application to foliage, application herbicide amount 320 g/ha; for F (Digitaria ciliaris) herbicidal effect grade: foliage application, 320 g/ha
Summary of the method: as §1

[4] = system: directly sowed Oryza sativa; assay: Test Example 3: effect on crop by application to foliage (Wagner pot, water depth 0.1-0.5 cm); conditions: Nineteenth Table; application to foliage; application herbicide amount 320 g/ha
Summary of the method: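 Scores (0–5) reflect herbicidal ratio three weeks after a foliar spray: 0 is 5% or less, 5 is 90% or more. Plants had grown 14 days in alluvial soil pots in a 25–30 °C greenhouse before treatment with water-diluted emulsion at a set g/ha.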

Structure (SMILES)	f: effect on crop, Beta vulgaris ssp. vulgaris [1]	d: effect on crop, Glycine max (Glycine max)	g: effect on crop, Brassica campestris L. (Brassica campestris L.)	b: effect on crop, directly sowed Oryza sativa [2]	e: effect on crop, Triticum aestivum (Triticum aestivum)	c: effect on crop, Zea mays (Zea mays)	O: herbicidal effect on Chenopodium album (Chenopodium album)	G: herbicidal effect on Setaria viridis (Setaria viridis)	H: herbicidal effect on Echinochloa crus-galli var. crus-galli [3]	R: herbicidal effect on Veronica persica (Veronica persica)	J: herbicidal effect on Alopecurus myosuroides (Alopecurus myosuroides)	N: herbicidal effect on Amaranthus retroflexus (Amaranthus retroflexus)	L: herbicidal effect on Apera spica-venti. (Apera spica-venti.)	K: herbicidal effect on Lolium multiflorum Lam. (Lolium multiflorum Lam.)	I: herbicidal effect on Avena fatua (Avena fatua)	P: herbicidal effect on Stellaria media (Stellaria media)	Q: herbicidal effect on Galium spurium (Galium spurium)	M: herbicidal effect on Abutilon theophrasti (Abutilon theophrasti)	F: herbicidal effect on Digitaria ciliaris (Digitaria ciliaris)	b (effect on crop grade) [4]	further results
Cn1nnnc1NC(=O)c1ccc(C(F)(F)F)n2cnnc12 [2-001]	5 (Herbicidal ratio of 90% or more (almost completely withered))	2 (Herbicidal ratio of 20% or more and less than 40%)	4 (Herbicidal ratio of 70% or more and less than 90%)	0 (Herbicidal ratio of 5% or less (almost no effect))	0 (Herbicidal ratio of 5% or less (almost no effect))	0 (Herbicidal ratio of 5% or less (almost no effect))	5 (Herbicidal ratio of 90% or more (almost completely withered))	0 (Herbicidal ratio of 5% or less (almost no effect))	4 (Herbicidal ratio of 70% or more and less than 90%)	5 (Herbicidal ratio of 90% or more (almost completely withered))	0 (Herbicidal ratio of 5% or less (almost no effect))	5 (Herbicidal ratio of 90% or more (almost completely withered))	0 (Herbicidal ratio of 5% or less (almost no effect))	1 (Herbicidal ratio of 5% or more and less than 20%)	1 (Herbicidal ratio of 5% or more and less than 20%)	5 (Herbicidal ratio of 90% or more (almost completely withered))	4 (Herbicidal ratio of 70% or more and less than 90%)	5 (Herbicidal ratio of 90% or more (almost completely withered))	3 (Herbicidal ratio of 40% or more and less than 70%)	1 (Herbicidal ratio of 5% or more and less than 20%)	
COc1cc(OC)cc(-c2nnc3c(C(=O)Nc4nnnn4C)ccc(C(F)(F)F)n23)c1 [2-063]																				3 (Herbicidal ratio of 40% or more and less than 70%)	f (Beta vulgaris ssp. vulgaris) effect on crop grade [1]: 5 (Herbicidal ratio of 90% or more (almost completely withered)); c (Glycine max) effect on crop grade (Glycine max): 3 (Herbicidal ratio of 40% or more and less than 70%); g (Brassica campestris L.) effect on crop grade (Brassica campestris L.): 4 (Herbicidal ratio of 70% or more and less than 90%); d (directly sowed Oryza sativa) effect on crop grade [2]: 4 (Herbicidal ratio of 70% or more and less than 90%); e (Triticum aestivum) effect on crop grade (Triticum aestivum): 3 (Herbicidal ratio of 40% or more and less than 70%); b (Zea mays) effect on crop grade (Zea mays): 4 (Herbicidal ratio of 70% or more and less than 90%); O (Chenopodium album) herbicidal effect grade (Chenopodium album): 5 (Herbicidal ratio of 90% or more (almost completely withered)); G (Setaria viridis) herbicidal effect grade (Setaria viridis): 5 (Herbicidal ratio of 90% or more (almost completely withered)); H (Echinochloa crus-galli var. crus-galli) herbicidal effect grade [3]: 5 (Herbicidal ratio of 90% or more (almost completely withered)); R (Veronica persica) herbicidal effect grade (Veronica persica): 5 (Herbicidal ratio of 90% or more (almost completely withered)); J (Alopecurus myosuroides) herbicidal effect grade (Alopecurus myosuroides): 3 (Herbicidal ratio of 40% or more and less than 70%); N (Amaranthus retroflexus) herbicidal effect grade (Amaranthus retroflexus): 5 (Herbicidal ratio of 90% or more (almost completely withered)); L (Apera spica-venti.) herbicidal effect grade (Apera spica-venti.): 3 (Herbicidal ratio of 40% or more and less than 70%); K (Lolium multiflorum Lam.) herbicidal effect grade (Lolium multiflorum Lam.): 3 (Herbicidal ratio of 40% or more and less than 70%); I (Avena fatua) herbicidal effect grade (Avena fatua): 4 (Herbicidal ratio of 70% or more and less than 90%); P (Stellaria media) herbicidal effect grade (Stellaria media): 5 (Herbicidal ratio of 90% or more (almost completely withered)); Q (Galium spurium) herbicidal effect grade (Galium spurium): 4 (Herbicidal ratio of 70% or more and less than 90%); M (Abutilon theophrasti) herbicidal effect grade (Abutilon theophrasti): 5 (Herbicidal ratio of 90% or more (almost completely withered)); F (Digitaria ciliaris) herbicidal effect grade (Digitaria ciliaris): 5 (Herbicidal ratio of 90% or more (almost completely withered))
COc1ccc(Cc2nnc3c(C(=O)Nc4nnnn4C)ccc(C(F)(F)F)n23)cc1 [2-065]																				3 (Herbicidal ratio of 40% or more and less than 70%)	f (Beta vulgaris ssp. vulgaris) effect on crop grade [1]: 5 (Herbicidal ratio of 90% or more (almost completely withered)); c (Glycine max) effect on crop grade (Glycine max): 4 (Herbicidal ratio of 70% or more and less than 90%); g (Brassica campestris L.) effect on crop grade (Brassica campestris L.): 4 (Herbicidal ratio of 70% or more and less than 90%); d (directly sowed Oryza sativa) effect on crop grade [2]: 4 (Herbicidal ratio of 70% or more and less than 90%); e (Triticum aestivum) effect on crop grade (Triticum aestivum): 3 (Herbicidal ratio of 40% or more and less than 70%); b (Zea mays) effect on crop grade (Zea mays): 3 (Herbicidal ratio of 40% or more and less than 70%); O (Chenopodium album) herbicidal effect grade (Chenopodium album): 5 (Herbicidal ratio of 90% or more (almost completely withered)); G (Setaria viridis) herbicidal effect grade (Setaria viridis): 5 (Herbicidal ratio of 90% or more (almost completely withered)); H (Echinochloa crus-galli var. crus-galli) herbicidal effect grade [3]: 5 (Herbicidal ratio of 90% or more (almost completely withered)); R (Veronica persica) herbicidal effect grade (Veronica persica): 5 (Herbicidal ratio of 90% or more (almost completely withered)); J (Alopecurus myosuroides) herbicidal effect grade (Alopecurus myosuroides): 3 (Herbicidal ratio of 40% or more and less than 70%); N (Amaranthus retroflexus) herbicidal effect grade (Amaranthus retroflexus): 5 (Herbicidal ratio of 90% or more (almost completely withered)); L (Apera spica-venti.) herbicidal effect grade (Apera spica-venti.): 4 (Herbicidal ratio of 70% or more and less than 90%); K (Lolium multiflorum Lam.) herbicidal effect grade (Lolium multiflorum Lam.): 3 (Herbicidal ratio of 40% or more and less than 70%); I (Avena fatua) herbicidal effect grade (Avena fatua): 4 (Herbicidal ratio of 70% or more and less than 90%); P (Stellaria media) herbicidal effect grade (Stellaria media): 5 (Herbicidal ratio of 90% or more (almost completely withered)); Q (Galium spurium) herbicidal effect grade (Galium spurium): 3 (Herbicidal ratio of 40% or more and less than 70%); M (Abutilon theophrasti) herbicidal effect grade (Abutilon theophrasti): 5 (Herbicidal ratio of 90% or more (almost completely withered)); F (Digitaria ciliaris) herbicidal effect grade (Digitaria ciliaris): 5 (Herbicidal ratio of 90% or more (almost completely withered))
C=CCN(C)c1nnc2c(C(=O)Nc3nnco3)ccc(C(F)(F)F)n12 [1-172]	5 (Herbicidal ratio of 90% or more (almost completely withered))	4 (Herbicidal ratio of 70% or more and less than 90%)	4 (Herbicidal ratio of 70% or more and less than 90%)	3 (Herbicidal ratio of 40% or more and less than 70%)	1 (Herbicidal ratio of 5% or more and less than 20%)	0 (Herbicidal ratio of 5% or less (almost no effect))	5 (Herbicidal ratio of 90% or more (almost completely withered))	4 (Herbicidal ratio of 70% or more and less than 90%)	5 (Herbicidal ratio of 90% or more (almost completely withered))	4 (Herbicidal ratio of 70% or more and less than 90%)	1 (Herbicidal ratio of 5% or more and less than 20%)	5 (Herbicidal ratio of 90% or more (almost completely withered))	1 (Herbicidal ratio of 5% or more and less than 20%)	1 (Herbicidal ratio of 5% or more and less than 20%)	2 (Herbicidal ratio of 20% or more and less than 40%)	5 (Herbicidal ratio of 90% or more (almost completely withered))	4 (Herbicidal ratio of 70% or more and less than 90%)	5 (Herbicidal ratio of 90% or more (almost completely withered))	5 (Herbicidal ratio of 90% or more (almost completely withered))	3 (Herbicidal ratio of 40% or more and less than 70%)	
